Experimental data as given in patent publication US10196386B2, “Compounds having muscarinic receptor antagonist and beta2 adrenergic receptor agonist activity” (priority 2016, dated 2019).

Experiments:
[1] = target: T1, Human M3 receptor (Homo sapiens, UniProt P20309); assay: biochemical; format: binding; settings: read-out: M3 Range
T1 construct: purchased Perkin Elmer

[2] = target: T2, Human β2 adrenoceptor (Homo sapiens, UniProt P07550); assay: β2 adrenoceptor radioligand binding assay
T2 construct: purchased Perkin Elmer
T2 sequence (P07550 whole entry): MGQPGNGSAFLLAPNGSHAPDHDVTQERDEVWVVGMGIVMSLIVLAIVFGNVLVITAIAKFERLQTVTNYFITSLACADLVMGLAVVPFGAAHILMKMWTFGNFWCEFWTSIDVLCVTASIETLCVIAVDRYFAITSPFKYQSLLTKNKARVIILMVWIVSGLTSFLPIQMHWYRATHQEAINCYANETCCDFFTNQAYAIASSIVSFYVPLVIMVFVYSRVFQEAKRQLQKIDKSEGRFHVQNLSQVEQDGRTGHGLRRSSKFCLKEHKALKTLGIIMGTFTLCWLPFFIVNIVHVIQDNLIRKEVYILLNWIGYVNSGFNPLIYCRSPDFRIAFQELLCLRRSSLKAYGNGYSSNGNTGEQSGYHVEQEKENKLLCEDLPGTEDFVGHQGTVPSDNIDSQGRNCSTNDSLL
Procedure: β2 Adrenoceptor Radioligand Binding Assay
Human β2 adrenoceptor membranes (7.5 ug/well) from Perkin Elmer were incubated with 0.3 nM 125-I Cyanopindolol with or without test compounds, or a saturating concentration of s-propranolol (2 μM) for the determination of non-specific binding. The assay was carried out in 96-well polypropylene plates in a volume of 200 ul. The assay buffer used was 25 mM HEPES, 0.5% BSA (w/v), 1 mM EDTA, 0.02% ascorbic acid (v/v), (pH 7.4). The final assay concentration of DMSO was 0.5% (v/v). The plates were sealed and incubated for 1 h at room temperature on an orbital shaker (slow speed). Membranes were harvested onto 96-well unifilter GF/C filter plates pre-treated with 0.5% polyethyleneimine (v/v), using a filter manifold, washed six times with 200 ul of wash buffer containing 10 mM HEPES and 500 mM NaCl. The plates were dried before addition of 50 μl of microscint-0, sealed then read in a Trilux Microbeta scintillation counter. IC50 values are determined from competition curves using a non-linear curve fitting program. Ki values were calculated from IC50 values by the Cheng and Prusoff equation.

T1 sequence (P20309 whole entry): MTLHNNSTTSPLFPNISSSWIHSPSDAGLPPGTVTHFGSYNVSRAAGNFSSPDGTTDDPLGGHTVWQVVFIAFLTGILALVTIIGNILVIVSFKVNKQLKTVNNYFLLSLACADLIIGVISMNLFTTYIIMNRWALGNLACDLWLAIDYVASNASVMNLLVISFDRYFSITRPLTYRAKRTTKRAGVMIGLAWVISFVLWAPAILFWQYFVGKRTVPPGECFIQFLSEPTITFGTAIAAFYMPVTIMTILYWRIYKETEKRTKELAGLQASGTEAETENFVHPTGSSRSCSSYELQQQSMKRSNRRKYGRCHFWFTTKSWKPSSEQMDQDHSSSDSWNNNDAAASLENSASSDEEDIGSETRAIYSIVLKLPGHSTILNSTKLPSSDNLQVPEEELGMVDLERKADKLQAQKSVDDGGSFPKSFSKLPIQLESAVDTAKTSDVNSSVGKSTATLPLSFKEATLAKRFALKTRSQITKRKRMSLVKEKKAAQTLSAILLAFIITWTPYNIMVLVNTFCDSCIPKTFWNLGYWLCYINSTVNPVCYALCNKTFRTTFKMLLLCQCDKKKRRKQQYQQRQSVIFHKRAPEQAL

Structure (SMILES)	IC50 [1]	IC50 [2]
O=C(NCc1ccc(-c2cccc([C@](O)(C(=O)OCC3CCN(Cc4ccccc4)CC3)c3ccccc3)c2)s1)c1cc(F)c(CNC[C@H](O)c2ccc(O)c3[nH]c(=O)ccc23)cc1F [Compound 1U, (1-Benzylpiperidin-4-yl)methyl (S)-2-(3-(5-((2,5-difluoro-4-((((R)-2-hydroxy-2-(8-hydroxy-2-oxo-1,2-dihydroquinolin-5-yl)ethyl)amino)methyl)-benzamido)methyl)thiophen-2-yl)phenyl)-2-hydroxy-2-phenylacetate]	0.3 to 3 nM	< 0.3 nM
O=C(NCc1ccc(-c2cccc([C@](O)(C(=O)OCC3CCN(Cc4ccccc4)CC3)c3ccccc3)c2)s1)c1ccc(CNC[C@H](O)c2ccc(O)c3[nH]c(=O)ccc23)c(F)c1F [Compound 1V, (1-Benzylpiperidin-4-yl)methyl (S)-2-(3-(5-((2,3-difluoro-4-((((R)-2-hydroxy-2-(8-hydroxy-2-oxo-1,2-dihydroquinolin-5-yl)ethyl)amino)methyl)-benzamido)methyl)thiophen-2-yl)phenyl)-2-hydroxy-2-phenylacetate]	0.3 to 3 nM	< 0.3 nM
O=C(NCc1ccc(-c2cccc([C@](O)(C(=O)OCC3CCN(Cc4ccccc4)CC3)c3ccccc3)c2)s1)c1c(F)cc(CNC[C@H](O)c2ccc(O)c3[nH]c(=O)ccc23)cc1Cl [Compound 1W, (1-Benzylpiperidin-4-yl)methyl (S)-2-(3-(5-((2-chloro-6-fluoro-4-((((R)-2-hydroxy-2-(8-hydroxy-2-oxo-1,2-dihydroquinolin-5-yl)ethyl)amino)methyl)-benzamido)methyl)thiophen-2-yl)phenyl)-2-hydroxy-2-phenylacetate]	0.3 to 3 nM	< 0.3 nM
COc1cc(CNC[C@H](O)c2ccc(O)c3[nH]c(=O)ccc23)cc(F)c1C(=O)NCc1ccc(-c2cccc([C@](O)(C(=O)OCC3CCN(Cc4ccccc4)CC3)c3ccccc3)c2)s1 [Compound 1X, (1-Benzylpiperidin-4-yl)methyl (S)-2-(3-(5-((2-fluoro-4-((((R)-2-hydroxy-2-(8-hydroxy-2-oxo-1,2-dihydroquinolin-5-yl)ethyl)amino)methyl)-6-methoxybenzamido)methyl)thiophen-2-yl)phenyl)-2-hydroxy-2-phenylacetate]	0.3 to 3 nM	< 0.3 nM
COc1ccc(CN2CCC(COC(=O)[C@](O)(c3ccccc3)c3cccc(-c4ccc(CNC(=O)c5ccc(CNC[C@H](O)c6ccc(O)c7[nH]c(=O)ccc67)cc5)s4)c3)CC2)cc1 [Compound 2A, (1-(4-Methoxybenzyl)piperidin-4-yl)methyl (S)-2-hydroxy-2-(3-(5-((4-((((R)-2-hydroxy-2-(8-hydroxy-2-oxo-1,2-dihydroquinolin-5-yl)ethyl)amino)-methyl)benzamido)methyl)thiophen-2-yl)phenyl)-2-phenylacetate]	0.3 to 3 nM	< 0.3 nM
CN1CCC(COC(=O)[C@](O)(c2ccccc2)c2cccc(-c3ccc(CNC(=O)c4ccc(CNC[C@H](O)c5ccc(O)c6[nH]c(=O)ccc56)cc4)s3)c2)CC1 [Compound 2B, (1-Methylpiperidin-4-yl)methyl (S)-2-hydroxy-2-(3-(5-((4-((((R)-2-hydroxy-2-(8-hydroxy-2-oxo-1,2-dihydroquinolin-5-yl)ethyl)amino)methyl)-benzamido)methyl)thiophen-2-yl)phenyl)-2-phenylacetate]	0.3 to 3 nM	< 0.3 nM
O=C(NCc1ccc(-c2cccc([C@](O)(C(=O)OC[C@@H]3[C@H]4CN(Cc5ccccc5)C[C@@H]34)c3ccccc3)c2)s1)c1ccc(CNC[C@H](O)c2ccc(O)c3[nH]c(=O)ccc23)cc1 [Compound 2D, ((1R,5S,6r)-3-Benzyl-3-azabicyclo[3.1.0]hexan-6-yl)methyl (S)-2-hydroxy-2-(3-(5-((4-((((R)-2-hydroxy-2-(8-hydroxy-2-oxo-1,2-dihydroquinolin-5-yl)ethyl)amino)methyl)benzamido)methyl)thiophen-2-yl)phenyl)-2-phenylacetate]	0.3 to 3 nM	0.3 to 3 nM
COc1cccc(CN2CCC(COC(=O)[C@](O)(c3ccccc3)c3cccc(-c4ccc(CNC(=O)c5ccc(CNC[C@H](O)c6ccc(O)c7[nH]c(=O)ccc67)cc5)s4)c3)CC2)c1 [Compound 2E, (1-(3-Methoxybenzyl)piperidin-4-yl)methyl (S)-2-hydroxy-2-(3-(5-((4-((((R)-2-hydroxy-2-(8-hydroxy-2-oxo-1,2-dihydroquinolin-5-yl)ethyl)amino)-methyl)benzamido)methyl)thiophen-2-yl)phenyl)-2-phenylacetate]	> 3 nM	0.3 to 3 nM
C[C@@H](OC(=O)[C@](O)(c1ccccc1)c1cccc(-c2ccc(CNC(=O)c3ccc(CNC[C@H](O)c4ccc(O)c5[nH]c(=O)ccc45)cc3)s2)c1)C1CCN(Cc2ccccc2)CC1 [Compound 2G, (R)-1-(1-Benzylpiperidin-4-yl)ethyl (S)-2-hydroxy-2-(3-(5-((4-((((R)-2-hydroxy-2-(8-hydroxy-2-oxo-1,2-dihydroquinolin-5-yl)ethyl)amino)-methyl)benzamido)methyl)thiophen-2-yl)phenyl)-2-phenylacetate]	0.3 to 3 nM	< 0.3 nM
O=C(NCc1ccc(-c2cccc([C@](O)(C(=O)OC3CCC4(CC3)CCN(Cc3ccccc3)CC4)c3ccccc3)c2)s1)c1ccc(CNC[C@H](O)c2ccc(O)c3[nH]c(=O)ccc23)cc1 [Compound 2H, 3-Benzyl-3-azaspiro[5.5]undecan-9-yl (S)-2-hydroxy-2-(3-(5-((4-((((R)-2-hydroxy-2-(8-hydroxy-2-oxo-1,2-dihydroquinolin-5-yl)ethyl)amino)-methyl)benzamido)methyl)thiophen-2-yl)phenyl)-2-phenylacetate]	> 3 nM	< 0.3 nM
O=C(c1ccc(CCNC[C@H](O)c2ccc(O)c3[nH]c(=O)ccc23)cc1)N1CC=C(c2cccc([C@](O)(C(=O)OCC3CCN(Cc4ccccc4)CC3)c3ccccc3)c2)CC1 [Compound 3, (1-Benzylpiperidin-4-yl)methyl (S)-2-hydroxy-2-(3-(1-(4-(2-(((R)-2-hydroxy-2-(8-hydroxy-2-oxo-1,2-dihydroquinolin-5-yl)ethyl)amino)ethyl)benzoyl)-1,2,3,6-tetrahydropyridin-4-yl)phenyl)-2-phenylacetate]	< 0.3 nM	< 0.3 nM
O=C(NCc1ccc(-c2cccc([C@](O)(C(=O)OCC3CCN(Cc4ccccc4)CC3)c3ccccc3)c2)o1)c1ccc(CNC[C@H](O)c2ccc(O)c3[nH]c(=O)ccc23)cc1 [Compound 3A, (1-Benzylpiperidin-4-yl)methyl (S)-2-hydroxy-2-(3-(5-((4-((((R)-2-hydroxy-2-(8-hydroxy-2-oxo-1,2-dihydroquinolin-5-yl)ethyl)amino)methyl)-benzamido)methyl)furan-2-yl)phenyl)-2-phenylacetate]	0.3 to 3 nM	0.3 to 3 nM
O=C(c1ccc(CNC[C@H](O)c2ccc(O)c3[nH]c(=O)ccc23)cc1)N1CC=C(c2cccc([C@](O)(C(=O)OCC3CCN(Cc4ccccc4)CC3)c3ccccc3)c2)CC1 [Compound 3B, (1-Benzylpiperidin-4-yl)methyl (S)-2-hydroxy-2-(3-(1-(4-((((R)-2-hydroxy-2-(8-hydroxy-2-oxo-1,2-dihydroquinolin-5-yl)ethyl)amino)methyl)benzoyl)-1,2,3,6-tetrahydropyridin-4-yl)phenyl)-2-phenylacetate]	0.3 to 3 nM	< 0.3 nM
